Laboratory results from paper PMC8929047, “Synthetic Oligopeptides Mimicking γ-Core Regions of Cysteine-Rich Peptides of Solanum lycopersicum Possess Antimicrobial Activity against Human and Plant Pathogens” (Current Issues in Molecular Biology, 2021).
Peptide text beside a SMILES is read from it.

Tests used:
F. oxysporum VKM F-137 = type: cell-based; details: Fusarium oxysporum; 38 h incubation, absorbance 595 nm; max tested 150 μM; mean ± SD, three replicates
Method: (§1) To study the effect of peptides on spore germination and growth of plant pathogenic fungi, fungal strains from the VKM collection were used: Fusarium culmorum VKM F-2303, F. oxysporum VKM F-137, F. solani VKM F-142, F. verticillioides VKM F-670, Bipolaris sorokiniana VKM F-4006, and Botrytis cinerea VKM F-4549. The fungi were grown on potato dextrose agar at 25 °C for 7–8 days, or for B. sorokiniana and B. cinerea, for 10–12 days. Spores were washed off from the surface of the mycelia with sterile distilled water and filtered through a sterile filter. The filtrate was centrifuged at 6000 rpm for 15 min. The precipitate was washed three times with sterile distilled water, transferred to Eppendorf tubes, and centrifuged at 10,000 rpm for 2 min. 1 mL of sterile aqueous 20% glycerol solution was added to the spores, and the tubes with spores were stored in a freezer at −20 °C.
(§2) Similar to antimicrobial assays with yeasts and bacteria, the effect of peptides on spore germination and fungal growth was studied by measuring the absorbance of the spore suspension in the presence of the peptide in microtiter plates. The wells of a plate were filled with 90 µL of spore suspension in half-strength potato dextrose broth at a concentration of 2000–3000 spores in 100 µL and 10 µL of aqueous solutions of peptides at final concentrations of 10–300 µM. The concentration of spores in the suspension was determined in the Goryaev chamber. The absorbance was recorded at 595 nm on a FilterMax F5 Multi-Mode Microplate Reader (Molecular Devices, San Jose, CA, USA) after 38 h of incubation, for B. sorokiniana and B. cinerea, after 14, 19, 24, 38, 43, 62 h.
(§3) Antimicrobial activity was expressed in IC50 values, which denote the concentration required for 50% inhibition of the pathogen growth; this was determined from a graph showing the dependence of antimicrobial activity on peptide concentration.
(§4) For each pathogen, experiments on the evaluation of antimicrobial activity of the synthetic peptides were performed with three replicates per treatment. Mean values, standard deviations (SD), and the significance of differences (p ≤ 0.05) of the means between treatments and controls (t-test for independent variables) were determined using STATISTICA v. 6.1 software (StatSoft Inc., Tulsa, OK, USA).

[1] = system: Fusarium culmorum VKM F-2303; test: Spore germination and fungal growth inhibition (absorbance); type: cell-based; details: for IC50: Fusarium culmorum, 38 h incubation, absorbance 595 nm, max tested 150 μM, mean ± SD, three replicates; for Inhibition of F. culmorum growth: 38 h
Method: as §1, §2, §3, §4

[2] = system: Cryptococcus neoformans VKM Y-2755; details: for IC50: Cryptococcus neoformans, 24 h incubation, 30 °C, absorbance 594 nm, max tested 100 μM, mean ± SD, three replicates; for Inhibition of C. neoformans growth: peptide 300 μM, 24 h, relative to control
Method: (§5) The antimicrobial activity of synthetic peptides was tested against the yeasts Cryptococcus neoformans VKM Y-2755 and Candida albicans VKM Y-2994, as well as against the bacteria Pectobacterium carotovorum subsp. carotovorum VKM B-1247, Pseudomonas savastanoi pv. savastanoi VKM B-1546 and Clavibacter michiganensis subsp. michiganensis VKM Ac-1403. All cultures were obtained from the All-Russian Collection of Microorganisms (VKM). Yeasts were grown on YPD-P medium containing (g/L): glucose–10, peptone–5 and yeast extract–4. Bacterial cultures were grown on medium containing (g/L): yeast extract–1, soya extract–30, aminopeptides (a solution of low-molecular weight peptides and all essential amino acids obtained from the blood of cattle by enzymatic hydrolysis)–60, tryptone–5 and pH 7.2. The microbial cultures were grown on a shaker at 30 °C for 24 h. The optical density of the cultures was measured on a UNICO 1201 (Unico, Dayton, NJ, USA) spectrophotometer at 594 nm. Yeast cultures were diluted 1:10 with water before analysis. […] The antibiotic activity of peptides against yeasts and bacteria was assayed in immunoassay microtiter plates. 10 µL of the tested peptide solution (final concentrations of 10–300 µM) in water, 80 µL of the medium and 10 µL of the microbial suspension were mixed in a well of the microtiter plate and incubated at 30 °C for 24 h; after that, the absorbance of the suspension was measured on an Efos 9305 spectrophotometer (Sapphire, Moscow, Russia) at 594 nm.
as §3
as §4, with “STATISTICA” left out

[3] = system: F. verticillioides VKM F-670; type: cell-based, Fusarium verticillioides; details: for IC50: Fusarium verticillioides, 38 h incubation, absorbance 595 nm, max tested 180 μM, mean ± SD, three replicates
Method: as §1
as §2, with “h. […]” for “h.”
as §4, with “6.1 software (StatSoft Inc., Tulsa, OK, USA).” left out

F. solani VKM F-142 = type: cell-based, Fusarium solani; details: for IC50: Fusarium solani, 38 h incubation, absorbance 595 nm, max tested 150 μM, mean ± SD, three replicates
Method: as §1
as §2, with “h. […]” for “h.”
as §4, with “6.1 software (StatSoft Inc., Tulsa, OK, USA).” left out

[4] = system: Clavibacter michiganensis subsp. michiganensis VKM Ac-1403; type: cell-based; details: for IC50: Clavibacter michiganensis, 24 h incubation, 30 °C, absorbance 594 nm, max tested 100 μM, mean ± SD, three replicates
Method: as §5, §3, §4

[5] = system: Botrytis cinerea VKM F-4549; type: cell-based; details: for Inhibition of B. cinerea growth: peptide 300 μM, relative to control; for B. cinerea growth dynamics in the presence of peptide: peptide 60 μM, absorbance after 14-62 h, control H2O
Method: as §1, §2, §3, §4

[6] = system: Pectobacterium carotovorum subsp. carotovorum VKM B-1247; test: Growth inhibition of bacteria in microtiter plates (absorbance); type: cell-based; details: peptide 300 μM, 24 h, relative to control
Method: The antimicrobial activity of synthetic peptides was tested against the yeasts Cryptococcus neoformans VKM Y-2755 and Candida albicans VKM Y-2994, as well as against the bacteria Pectobacterium carotovorum subsp. carotovorum VKM B-1247, Pseudomonas savastanoi pv. savastanoi VKM B-1546 and Clavibacter michiganensis subsp. michiganensis VKM Ac-1403. All cultures were obtained from the All-Russian Collection of Microorganisms (VKM). Yeasts were grown on YPD-P medium containing (g/L): glucose–10, peptone–5 and yeast extract–4. […] The optical density of the cultures was measured on a UNICO 1201 (Unico, Dayton, NJ, USA) spectrophotometer at 594 nm. […] 10 µL of the tested peptide solution (final concentrations of 10–300 µM) in water, 80 µL of the medium and 10 µL of the microbial suspension were mixed in a well of the microtiter plate and incubated at 30 °C for 24 h; after that, the absorbance of the suspension was measured on an Efos 9305 spectrophotometer (Sapphire, Moscow, Russia) at 594 nm. […]
as §4, with “6.1 software (StatSoft Inc., Tulsa, OK, USA).” left out

[7] = system: Bipolaris sorokiniana VKM F-4006; test: Spore germination and fungal growth inhibition (absorbance); type: cell-based; details: for Inhibition of B. sorokiniana growth: peptide 300 μM, relative to control
Method: as §1, §2, §3, §4

Fusarium species = test: Spore germination and fungal growth inhibition, statement for all tested Fusarium species; type: cell-based; details: peptide 300 μM, relative to control
Method: as §1
as §2, with “h. […]” for “h.”
as §4, with “6.1 software (StatSoft Inc., Tulsa, OK, USA).” left out

CC(C)C[C@H](NC(=O)[C@H](CC(N)=O)NC(=O)[C@H](CCC(N)=O)NC(=O)[C@H](CCCNC(=N)N)NC(=O)[C@H](CO)NC(=O)[C@H](CO)NC(=O)[C@H](CCCCN)NC(=O)[C@H](CO)NC(=O)[C@H](CS)NC(=O)[C@H](CCCNC(=N)N)NC(=O)[C@@H](NC(=O)[C@H](CCCCN)NC(=O)[C@H](CS)NC(=O)[C@H](CO)NC(=O)CN)[C@@H](C)O)C(=O)N[C@@H](CS)C(=O)N[C@@H](CC(N)=O)C(=O)N[C@@H](CCCNC(=N)N)C(=O)O [γ47-64SlSN10] (H-GSCKTRCSKSSRQNLCNR-OH)
IC50 (F. oxysporum VKM F-137): 43.8 ± 6.8 µM
IC50 [1]: 127 ± 8.5 µM

CC(C)C[C@H](NC(=O)[C@H](CCCNC(=N)N)NC(=O)[C@H](CS)NC(=O)[C@H](CCCNC(=N)N)NC(=O)[C@H](C)NC(=O)[C@H](C)NC(=O)[C@H](CS)NC(=O)[C@H](C)NC(=O)CN)C(=O)N[C@@H](CO)C(=O)N[C@@H](CO)C(=O)N[C@@H](CCCNC(=N)N)C(=O)N1CCC[C@H]1C(=O)N[C@@H](CCCNC(=N)N)C(=O)N[C@@H](CC(C)C)C(=O)N[C@@H](CS)C(=O)N[C@@H](Cc1c[nH]cn1)C(=O)N[C@@H](CCCNC(=N)N)C(=O)O [γ48-65SlSN2] (H-GACAARCRLSSRPRLCHR-OH)
IC50 (F. oxysporum VKM F-137): 57.1 ± 11.6 µM
IC50 [2]: 4.2 ± 0.6 µM
IC50 [1]: 42.1 ± 6.5 µM
Inhibition of F. culmorum growth ([1]; peptide 75 μM): 79%
IC50 [3]: 152 ± 7.7 µM
IC50 (F. solani VKM F-142): 47.5 ± 2 µM
Maximum inhibition of F. solani (F. solani VKM F-142; peptide 150 μM, 38 h): 69%
IC50 [4]: 23.1 ± 2.7 µM

C[C@@H](O)[C@H](NC(=O)[C@H](CS)NC(=O)[C@H](Cc1ccccc1)NC(=O)[C@H](CS)NC(=O)[C@H](CCCNC(=N)N)NC(=O)[C@H](CCCNC(=N)N)NC(=O)[C@H](CCCNC(=N)N)NC(=O)[C@H](Cc1ccccc1)NC(=O)CNC(=O)[C@H](CCCNC(=N)N)NC(=O)[C@H](CS)NC(=O)[C@H](CC(=O)O)NC(=O)CNC(=O)CNC(=O)[C@H](CO)NC(=O)[C@@H](N)Cc1ccccc1)C(=O)N[C@@H](CCCNC(=N)N)C(=O)O [γ58-74SlDEFL2] (H-FSGGDCRGFRRRCFCTR-OH)
Inhibition of B. cinerea growth [5]: 31–45%
IC50 [2]: 11.5 ± 2.5 µM
Inhibition of C. neoformans growth [2]: 90%
Inhibition of P. carotovorum growth [6]: 48%
IC50 [1]: 44.8 ± 4 µM
IC50 [4]: 19.8 ± 2.5 µM

C[C@@H](O)[C@H](NC(=O)[C@H](CS)NC(=O)[C@H](Cc1ccccc1)NC(=O)[C@H](CS)NC(=O)[C@H](CCCNC(=N)N)NC(=O)[C@H](CCCNC(=N)N)NC(=O)[C@H](CCCNC(=N)N)NC(=O)[C@H](Cc1ccccc1)NC(=O)CNC(=O)[C@H](CCCNC(=N)N)NC(=O)[C@H](CS)NC(=O)[C@H](CC(N)=O)NC(=O)CNC(=O)CNC(=O)[C@@H](NC(=O)[C@@H](N)Cc1ccccc1)[C@@H](C)O)C(=O)N[C@@H](CCCNC(=N)N)C(=O)O [γ58-74SlDEFL4] (H-FTGGNCRGFRRRCFCTR-OH)
Inhibition of B. cinerea growth [5]: 31–45%
IC50 (F. oxysporum VKM F-137): 125 ± 3.7 µM
IC50 [2]: 8.1 ± 2.4 µM
IC50 [1]: 42.3 ± 5.7 µM
IC50 [4]: 21.5 ± 5.1 µM

CC[C@H](C)[C@H](NC(=O)[C@H](CCC(=O)O)NC(=O)[C@@H]1CCCN1C(=O)[C@H](CS)NC(=O)[C@H](CS)NC(=O)CNC(=O)[C@@H](N)CCCCN)C(=O)N[C@@H](C)C(=O)NCC(=O)N[C@@H](CC(C)C)C(=O)N[C@@H](CC(C)C)C(=O)N[C@@H](CC(=O)O)C(=O)N[C@@H](CO)C(=O)N[C@@H](CC(N)=O)C(=O)N1CCC[C@H]1C(=O)N[C@H](C(=O)N[C@@H](CS)C(=O)O)[C@@H](C)CC [γ70-86SlLTPg2.8] (H-KGCCPEIAGLLDSNPIC-OH; N-terminus and C-terminus assumed)
B. cinerea growth dynamics in the presence of peptide [5]: insensitive

CC(C)C[C@H](NC(=O)CN)C(=O)N[C@@H](CS)C(=O)N[C@@H](CCCCN)C(=O)N[C@@H](Cc1ccc(O)cc1)C(=O)N[C@@H](CCCNC(=N)N)C(=O)N[C@@H](CS)C(=O)N[C@@H](CO)C(=O)N[C@@H](CC(C)C)C(=O)N[C@@H](Cc1c[nH]cn1)C(=O)N[C@@H](CO)C(=O)N[C@@H](CCCNC(=N)N)C(=O)N1CCC[C@H]1C(=O)N[C@@H](CC(N)=O)C(=O)N[C@H](C(=O)N[C@@H](CS)C(=O)N[C@@H](Cc1ccccc1)C(=O)N[C@@H](CCCNC(=N)N)C(=O)O)C(C)C [γ89-106SlSN9] (H-GLCKYRCSLHSRPNVCFR-OH)
IC50 [2]: 5.1 ± 1.2 µM
IC50 [1]: 42.4 ± 3.5 µM
Inhibition of F. culmorum growth ([1]; peptide 50 μM): 72%
IC50 [3]: 99.8 ± 10 µM
Maximum inhibition of F. verticillioides ([3]; peptide 180 μM, 38 h): 62%
IC50 (F. solani VKM F-142): 139 ± 6.1 µM
IC50 [4]: 24 ± 2.4 µM

C[C@@H](O)[C@H](NC(=O)[C@H](CCCCN)NC(=O)[C@@H]1CCCN1C(=O)[C@@H](NC(=O)[C@H](Cc1ccccc1)NC(=O)[C@H](CO)NC(=O)[C@H](CS)NC(=O)[C@H](Cc1ccc(O)cc1)NC(=O)CNC(=O)[C@H](Cc1ccccc1)NC(=O)[C@@H]1CCCN1C(=O)[C@@H](N)CCCNC(=N)N)[C@@H](C)O)C(=O)N[C@@H](CS)C(=O)O [γ92-104SlMEG2] (H-RPFGYCSFTPKTC-OH; N-terminus and C-terminus assumed)
B. cinerea growth dynamics in the presence of peptide [5]: insensitive
Inhibition of B. cinerea growth [5]: 36–40%
Inhibition of C. neoformans growth [2]: with high efficiency
B. sorokiniana growth dynamics in the presence of peptide ([7]; peptide 60 μM, effect observed after 38 h of spore incubation, control H2O): significant growth suppression
Suppression of Fusarium species (Fusarium species): insensitive
Inhibition of C. michiganensis growth ([4]; peptide 300 μM, 24 h, relative to control): with high efficiency

SGCCTQLGTVVKNNPEC [γ56-72SlLTPg2.4, synthetic 17-residue peptide corresponding to the γ-core region of tomato nsLTP SlLTPg2.4]
Inhibition of B. cinerea growth [5]: inactive
Inhibition of B. sorokiniana growth [7]: inactive
Suppression of Fusarium species (Fusarium species): inactive

SGCCTQLSTVVDEKSEC [γ53-69SlLTPg2.5, synthetic 17-residue peptide corresponding to the γ-core region of tomato nsLTP SlLTPg2.5]
Inhibition of B. cinerea growth [5]: inactive
Inhibition of B. sorokiniana growth [7]: inactive
Suppression of Fusarium species (Fusarium species): inactive
